The values below come from publication PMC6545883 (Journal of the American Chemical Society, 2019).

The test deals with PtmO8 (Streptomyces platensis, UniProt A0A0A0UVL0). Briefly: steady-state enzyme kinetics. In kind it is biochemical.

The term Km denotes the concentration of substrate that gives half-maximal velocity. `NC(=O)c1ccc[n+]([C@@H]2O[C@H](COP(=O)([O-])OP(=O)(O)OC[C@H]3O[C@@H](n4cnc5c(N)ncnc54)[C@H](O)[C@@H]3O)[C@@H](O)[C@H]2O)c1` [NAD^+]: the Michaelis constant (Km) was found to be 34.2 ± 3.6 µM.
